According to patent publication US10597388B2, “Pyridazinone herbicides” (FMC CORPORATION, priority 2014, dated 2020):

What was measured:
Assay in all cases: Test D controlled growth environment herbicide test, pre- and postemergence
Assay type in all cases: in vivo
[1] = tested on: mustard, wild (wild mustard, Sinapis arvensis)
Summary of the method: (§1)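 Species sown in silt loam and sprayed preemergence, or grown in peat-based medium to 2–18 cm (1- to 4-leaf stage) and sprayed postemergence, with compounds in non-phytotoxic solvent plus surfactant. Visual injury scored versus controls after 14–21 d in a controlled environment, 0 (no effect) to 100 (complete control).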

[2] = tested on: oilseed rape (Brassica napus)
Summary of the method: as §1

[3] = tested on: chamomile (scentless chamomile, Matricaria inodora)
Summary of the method: as §1

[4] = tested on: lambsquarters (Chenopodium album)
Summary of the method: as §1

[5] = tested on: barley, spring (spring barley, Hordeum vulgare)
Summary of the method: as §1

[6] = tested on: ryegrass, Italian (Italian ryegrass, Lolium multiflorum)
Summary of the method: as §1

[7] = tested on: wheat, winter (winter wheat, Triticum aestivum)
Summary of the method: as §1

[8] = tested on: blackgrass (Alopecurus myosuroides)
Summary of the method: as §1

[9] = tested on: speedwell (bird's-eye speedwell, Veronica persica)
Summary of the method: as §1

[10] = tested on: foxtail, green (green foxtail, Setaria viridis)
Summary of the method: as §1

[11] = tested on: bluegrass (annual bluegrass, Poa annua)
Summary of the method: as §1

[12] = tested on: field poppy (Papaver rhoeas)
Summary of the method: as §1

[13] = tested on: wheat, spring (spring wheat, Triticum aestivum)
Summary of the method: as §1

[14] = Postemergence, 31 g ai/ha, scale 0 to 100 (0 no effect, 100 complete control)
[15] = Postemergence, 125 g ai/ha, visual rating on scale 0 (no effect) to 100 (complete control), 14 to 21 d
[16] = Postemergence, 250 g ai/ha, scale 0 to 100 (0 no effect, 100 complete control)
[17] = Preemergence, 62 g ai/ha, scale 0 to 100 (0 no effect, 100 complete control)
[18] = Preemergence, 125 g ai/ha, scale 0 to 100 (0 no effect, 100 complete control)
[19] = Preemergence, 250 g ai/ha, scale 0 to 100 (0 no effect, 100 complete control)
[20] = postemergence, 62 g ai/ha, scale 0 to 100, 0 no effect, 100 complete control

## CCC(=O)Oc1c(C)nn(C)c(=O)c1-c1c(C)sc2c(C)cc(C)cc12 [Compound 28]
[1]; [14]
  Mustard, Wild plant response rating: 35
[1]; [15]
  Plant response rating, Mustard, Wild: 70
[1]; [16]
  Plant response rating, Mustard, Wild: 70
[1]; Preemergence, 31 g ai/ha
  Plant response rating (scale of 0 to 100), Mustard, Wild: 10
[1]; [17]
  Plant response rating, Mustard, Wild: 15
[1]; [18]
  Plant response rating, Mustard, Wild: 30
[1]; [19]
  Plant response rating, Mustard, Wild: 55
[1]; [20]
  Plant response rating, Mustard, Wild: 45
[2]; [14]
  Oilseed Rape plant response rating: 65
[2]; [15]
  Plant response rating, Oilseed Rape: 65
[2]; [16]
  Plant response rating, Oilseed Rape: 85
[2]; Preemergence, 31 g ai/ha
  Plant response rating (scale of 0 to 100), Oilseed Rape: 0
[2]; [17]
  Plant response rating, Oilseed Rape: 0
[2]; [18]
  Plant response rating, Oilseed Rape: 10
[2]; [19]
  Plant response rating, Oilseed Rape: 25
[2]; [20]
  Plant response rating, Oilseed Rape: 65
[3]; [14]
  Chamomile plant response rating: 85
[3]; [15]
  Plant response rating, Chamomile: 90
[3]; [16]
  Plant response rating, Chamomile: 95
[3]; Preemergence, 31 g ai/ha
  Plant response rating (scale of 0 to 100), Chamomile: 100
[3]; [17]
  Plant response rating, Chamomile: 95
[3]; [18]
  Plant response rating, Chamomile: 100
[3]; [19]
  Plant response rating, Chamomile: 100
[3]; [20]
  Plant response rating, Chamomile: 90
[4]; [14]
  Lambsquarters plant response rating: 80
[4]; [15]
  Plant response rating, Lambsquarters: 90
[4]; [16]
  Plant response rating, Lambsquarters: 90
[4]; Preemergence, 31 g ai/ha
  Plant response rating (scale of 0 to 100), Lambsquarters: 100
[4]; [17]
  Plant response rating, Lambsquarters: 100
[4]; [18]
  Plant response rating, Lambsquarters: 100
[4]; [19]
  Plant response rating, Lambsquarters: 100
[4]; [20]
  Plant response rating, Lambsquarters: 85
[5]; [14]
  Plant response rating, Barley, Spring: 5
[5]; [15]
  Plant response rating, Barley, Spring: 5
[5]; [16]
  Plant response rating, Barley, Spring: 10
[5]; Preemergence, 31 g ai/ha
  Plant response rating (scale of 0 to 100), Barley, Spring: 0
[5]; [17]
  Plant response rating, Barley, Spring: 0
[5]; [18]
  Plant response rating, Barley, Spring: 0
[5]; [19]
  Barley, Spring plant response rating: 0
[5]; [20]
  Plant response rating, Barley, Spring: 5
[6]; [14]
  Ryegrass, Italian plant response rating: 75
[6]; [15]
  Plant response rating, Ryegrass, Italian: 80
[6]; [16]
  Plant response rating, Ryegrass, Italian: 85
[6]; Preemergence, 31 g ai/ha
  Plant response rating (scale of 0 to 100), Ryegrass, Italian: 90
[6]; [17]
  Plant response rating, Ryegrass, Italian: 95
[6]; [18]
  Plant response rating, Ryegrass, Italian: 100
[6]; [19]
  Plant response rating, Ryegrass, Italian: 100
[6]; [20]
  Plant response rating, Ryegrass, Italian: 80
[7]; [14]
  Wheat, Winter plant response rating: 5
[7]; [15]
  Plant response rating, Wheat, Winter: 5
[7]; [16]
  Plant response rating, Wheat, Winter: 15
[7]; Preemergence, 31 g ai/ha
  Plant response rating (scale of 0 to 100), Wheat, Winter: 0
[7]; [17]
  Plant response rating, Wheat, Winter: 0
[7]; [18]
  Plant response rating, Wheat, Winter: 0
[7]; [19]
  Plant response rating, Wheat, Winter: 0
[7]; [20]
  Plant response rating, Wheat, Winter: 5
[8]; [14]
  Blackgrass plant response rating: 75
[8]; [15]
  Plant response rating, Blackgrass: 85
[8]; [16]
  Plant response rating, Blackgrass: 85
[8]; Preemergence, 31 g ai/ha
  Plant response rating (scale of 0 to 100), Blackgrass: 85
[8]; [17]
  Plant response rating, Blackgrass: 85
[8]; [18]
  Plant response rating, Blackgrass: 85
[8]; [19]
  Blackgrass plant response rating: 95
[8]; [20]
  Plant response rating, Blackgrass: 80
[9]; [14]
  Speedwell plant response rating: 60
[9]; [15]
  Plant response rating, Speedwell: 100
[9]; [16]
  Plant response rating, Speedwell: 100
[9]; Preemergence, 31 g ai/ha
  Plant response rating (scale of 0 to 100), Speedwell: 95
[9]; [17]
  Plant response rating, Speedwell: 95
[9]; [18]
  Plant response rating, Speedwell: 95
[9]; [19]
  Plant response rating, Speedwell: 100
[9]; [20]
  Plant response rating, Speedwell: 85
[10]; [14]
  Foxtail, Green plant response rating: 65
[10]; [15]
  Plant response rating, Foxtail, Green: 85
[10]; [16]
  Plant response rating, Foxtail, Green: 90
[10]; Preemergence, 31 g ai/ha
  Plant response rating (scale of 0 to 100), Foxtail, Green: 70
[10]; [17]
  Plant response rating, Foxtail, Green: 80
[10]; [18]
  Plant response rating, Foxtail, Green: 100
[10]; [19]
  Plant response rating, Foxtail, Green: 100
[10]; [20]
  Plant response rating, Foxtail, Green: 75
[11]; [14]
  Bluegrass plant response rating: 20
[11]; [15]
  Plant response rating, Bluegrass: 35
[11]; [16]
  Plant response rating, Bluegrass: 50
[11]; Preemergence, 31 g ai/ha
  Plant response rating (scale of 0 to 100), Bluegrass: 30
[11]; [17]
  Plant response rating, Bluegrass: 45
[11]; [18]
  Plant response rating, Bluegrass: 65
[11]; [19]
  Bluegrass plant response rating: 75
[11]; [20]
  Plant response rating, Bluegrass: 30
[12]; [14]
  Field Poppy plant response rating: 80
[12]; [15]
  Plant response rating, Field Poppy: 100
[12]; [16]
  Plant response rating, Field Poppy: 100
[12]; Preemergence, 31 g ai/ha
  Plant response rating (scale of 0 to 100), Field Poppy: 100
[12]; [17]
  Plant response rating, Field Poppy: 95
[12]; [18]
  Plant response rating, Field Poppy: 95
[12]; [19]
  Plant response rating, Field Poppy: 100
[12]; [20]
  Plant response rating, Field Poppy: 90
[13]; [14]
  Wheat, Spring plant response rating: 0
[13]; [15]
  Plant response rating, Wheat, Spring: 10
[13]; [16]
  Plant response rating, Wheat, Spring: 20
[13]; Preemergence, 31 g ai/ha
  Plant response rating (scale of 0 to 100), Wheat, Spring: 0
[13]; [17]
  Plant response rating, Wheat, Spring: 0
[13]; [18]
  Plant response rating, Wheat, Spring: 5
[13]; [19]
  Plant response rating, Wheat, Spring: 25
[13]; [20]
  Plant response rating, Wheat, Spring: 5
